Common to all, as to assay type: biochemical
One test deals with T1, JAK2 (Homo sapiens, UniProt O60674).
T1 construct: All four purified enzymes contain only the catalytic domain; His (N); purchased Carna Biosciences, Inc; host or cells: baculovirus expression system
Put plainly: JAK2 kinase assay (HTRF, inhibition of phosphorylation of a synthetic peptide). The conditions noted are these: catalytic domain, His-tag; 4 μM ATP (Km); read-out: JAK2 kinase inhibitory activity (EC50). The method, boiled down: (§1)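 Baculovirus-expressed human catalytic domains (GST-JAK1, GST-TYK2, His-JAK2, His-JAK3) phosphorylated 1 μM TK substrate-biotin at ATP Km (JAK1 7 μM, JAK2 4 μM, JAK3 2 μM, TYK2 13 μM) in pH 7.0 Hepes for 20-30 min at RT, 0.75% DMSO. EDTA stop, then overnight streptavidin-XL665/cryptate-antibody detection and HTRF read.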

In another test the target is T2, TYK2 (Homo sapiens, UniProt P29597).
T2 construct: JAK1 (aa 850-1154) and TYK2 (aa 871-1187) are expressed with an N-terminally fused GST-tag; GST (N); purchased Carna Biosciences, Inc; host or cells: baculovirus expression system
T2 sequence (P29597 871-1187): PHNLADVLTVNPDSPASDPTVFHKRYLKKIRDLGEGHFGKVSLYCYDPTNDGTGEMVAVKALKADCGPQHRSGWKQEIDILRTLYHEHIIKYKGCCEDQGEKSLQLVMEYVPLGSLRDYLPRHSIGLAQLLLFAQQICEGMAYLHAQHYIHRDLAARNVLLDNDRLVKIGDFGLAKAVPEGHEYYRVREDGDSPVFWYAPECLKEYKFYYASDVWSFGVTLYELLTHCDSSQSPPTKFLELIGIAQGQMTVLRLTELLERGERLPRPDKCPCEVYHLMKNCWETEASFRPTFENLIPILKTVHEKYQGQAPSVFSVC
Put plainly: TYK2 kinase assay (HTRF, inhibition of phosphorylation of a synthetic peptide). The conditions noted are these: catalytic domain aa 871-1187, GST-tag; 13 μM ATP (Km); read-out: TYK2 kinase inhibitory activity (EC50). In a few lines: as §1

The target in the next test is T3, JAK1 (Homo sapiens, UniProt P23458).
T3 construct: JAK1 (aa 850-1154) and TYK2 (aa 871-1187) are expressed with an N-terminally fused GST-tag; GST (N); purchased Carna Biosciences, Inc; host or cells: baculovirus expression system
Put plainly: JAK1 kinase assay (HTRF, inhibition of phosphorylation of a synthetic peptide). The conditions noted are these: catalytic domain aa 850-1154, GST-tag; 7 μM ATP (Km); read-out: JAK1 kinase inhibitory activity (EC50). In a few lines: as §1
For orientation: TR-FRET usually uses a lanthanide donor and a delayed reading to cut background.

For another test, the target named is T4, JAK3 (Homo sapiens, UniProt P52333).
T4 construct: All four purified enzymes contain only the catalytic domain; His (N); purchased Carna Biosciences, Inc; host or cells: baculovirus expression system
Put plainly: JAK3 kinase assay (HTRF, inhibition of phosphorylation of a synthetic peptide). The conditions noted are these: catalytic domain, His-tag; 2 μM ATP (Km); read-out: JAK3 kinase inhibitory activity (EC50). In a few lines:
as §1

T1 sequence (O60674 849-1124 limits assumed): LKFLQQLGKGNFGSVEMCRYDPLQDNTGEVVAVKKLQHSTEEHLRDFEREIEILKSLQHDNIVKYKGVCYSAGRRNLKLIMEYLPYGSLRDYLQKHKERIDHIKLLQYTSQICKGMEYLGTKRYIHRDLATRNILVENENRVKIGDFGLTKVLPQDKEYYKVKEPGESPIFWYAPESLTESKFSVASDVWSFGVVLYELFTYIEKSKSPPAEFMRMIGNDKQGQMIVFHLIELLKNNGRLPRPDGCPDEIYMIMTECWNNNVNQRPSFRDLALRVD
T3 sequence (P23458 850-1154): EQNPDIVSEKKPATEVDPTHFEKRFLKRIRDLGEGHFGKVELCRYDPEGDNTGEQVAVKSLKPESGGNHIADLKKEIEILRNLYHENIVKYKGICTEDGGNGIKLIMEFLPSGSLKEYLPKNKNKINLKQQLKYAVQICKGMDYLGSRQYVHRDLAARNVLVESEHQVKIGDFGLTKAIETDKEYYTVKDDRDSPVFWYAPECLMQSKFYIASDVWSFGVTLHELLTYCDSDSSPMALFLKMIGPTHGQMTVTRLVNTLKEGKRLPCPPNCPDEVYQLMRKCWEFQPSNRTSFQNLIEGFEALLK
T4 sequence (P52333 822-1111 limits assumed): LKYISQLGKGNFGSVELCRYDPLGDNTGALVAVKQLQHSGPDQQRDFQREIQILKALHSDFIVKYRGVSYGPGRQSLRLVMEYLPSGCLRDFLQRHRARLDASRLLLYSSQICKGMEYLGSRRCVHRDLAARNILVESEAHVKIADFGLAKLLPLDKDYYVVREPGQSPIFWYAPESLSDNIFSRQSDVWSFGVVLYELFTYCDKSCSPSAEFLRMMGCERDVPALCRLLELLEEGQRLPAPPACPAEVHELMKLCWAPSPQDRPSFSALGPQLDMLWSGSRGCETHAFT

A word on the EC50: it is the concentration giving half of the maximal effect. `O=C(Cc1ccc(F)cc1)N1CCN(c2ncnc3[nH]ccc23)CC2(CC2)C1` [Example 158, 2-(4-fluorophenyl)-1-[5-(7H-pyrrolo[2,3-d]pyrimidin-4-yl)-5,8-diazaspiro[2.6]nonan-8-yl]ethanone]: the EC50 is < 100 nM on JAK2, 100 to 1000 nM at TYK2, < 100 nM at JAK1 and 100 to 1000 nM at JAK3.
Take `CCCCC(=O)Nc1nc(N2CCN(Cc3ccccc3)CC3(CC3)C2)c2cc[nH]c2n1` [Example 282, N-[4-(5-benzyl-5,8-diazaspiro[2.6]nonan-8-yl)-7H-pyrrolo[2,3-d]pyrimidin-2-yl]pentanamide]: the EC50 at JAK2, on TYK2, on JAK1 and on JAK3 was > 1000 nM throughout.
Consider `N#Cc1cccc(CCC(=O)N2CCN(c3ncnc4[nH]ccc34)CC3(CC3)C2)c1` [Example 116, 3-[3-oxo-3-[5-(7H-pyrrolo[2,3-d]pyrimidin-4-yl)-5,8-diazaspiro[2.6]nonan-8-yl]propyl]benzonitrile], for which the EC50 was < 100 nM at JAK2, > 1000 nM at TYK2, 100 to 1000 nM on JAK1 and 100 to 1000 nM on JAK3.
With `N#CCc1ccccc1C(=O)N1CCN(c2ncnc3[nH]ccc23)CCC12CC2` [Example 48, 2-[2-[6-(7H-pyrrolo[2,3-d]pyrimidin-4-yl)-6,9-diazaspiro[2.6]nonane-9-carbonyl]phenyl]acetonitrile], the EC50 at JAK2, on TYK2, on JAK1 and on JAK3 was > 1000 nM in each case.
As for `CCC1=NOC(C(=O)N2CCCN(c3ncnc4[nH]ccc34)CC23CC3)C1` (racemic) [Example 123, (3-ethyl-4,5-dihydroisoxazol-5-yl)-[5-(7H-pyrrolo[2,3-d]pyrimidin-4-yl)-5,9-diazaspiro[2.6]nonan-9-yl]methanone], the EC50 at JAK2 is 100 to 1000 nM; at TYK2 it was > 1000 nM; on JAK1, 100 to 1000 nM; on JAK3, 100 to 1000 nM.
Consider `COc1cccc(C(=O)N2CCN(c3ncnc4[nH]ccc34)CC3(CC3)C2)c1OC` [Example 2, (2,3-Dimethoxyphenyl)-[8-(7H-pyrrolo[2,3-d]pyrimidin-4-yl)5,8-diazaspiro[2.6]non-5-yl]methanone], for which the EC50 on JAK2, at TYK2, on JAK1 and at JAK3 was > 1000 nM throughout.
Consider `N#Cc1cccc(C(=O)N2CCCN(c3ncnc4[nH]ccc34)CC23CC3)c1` [Example 57, 3-[5-(7H-pyrrolo[2,3-d]pyrimidin-4-yl)-5,9-diazaspiro[2.6]nonane-9-carbonyl]benzonitrile], for which the EC50 on JAK2 was < 100 nM; at TYK2, 100 to 1000 nM; at JAK1 it was 100 to 1000 nM; on JAK3, 100 to 1000 nM.
In the case of `O=C(c1cc2ccccc2s1)N1CCN(c2ncnc3[nH]ccc23)CC2(CC2)C1` [Example 18, benzothiophen-2-yl-[5-(7H-pyrrolo[2,3-d]pyrimidin-4-yl)-5,8-diazaspiro[2.6]nonan-8-yl]methanone], the EC50 was 100 to 1000 nM on JAK2, > 1000 nM at TYK2, < 100 nM on JAK1 and 100 to 1000 nM at JAK3.
Take `NS(=O)(=O)c1ccc(/C=C/C(=O)N2CCN(c3ncnc4[nH]ccc34)CC3(CC3)C2)cc1` [Example 54, 4-[(E)-3-oxo-3-[5-(7H-pyrrolo[2,3-d]pyrimidin-4-yl)-5,8-diazaspiro[2.6]nonan-8-yl]prop-1-enyl]benzenesulfonamide]: the EC50 at JAK2 was < 100 nM; on TYK2 it was 100 to 1000 nM; at JAK1 it was < 100 nM; on JAK3, 100 to 1000 nM.
For the compound `N#CCCC(=O)N1CCN(c2ncnc3[nH]ccc23)CC2(CC2)C1` [Example 1, 4-Oxo-4-[8-(7H-pyrrolo[2,3-d]pyrimidin-4-yl)-5,8-diazaspiro[2.6]non-5-yl]butyronitrile], the EC50 is < 100 nM at JAK2, 100 to 1000 nM at TYK2, < 100 nM on JAK1 and 100 to 1000 nM at JAK3.

The record behind these values is patent US9586961B2, “Homopiperazine derivatives as protein tyrosine kinase inhibitors and pharmaceutical use thereof” (LEO PHARMA A/S, priority 2010, dated 2017).
